Results on two compounds are retold here after PMC5587910, “Methionine Sulfoxide Reductase A (MsrA) and Its Function in Ubiquitin-Like Protein Modification in Archaea” (mBio, 2017).

One test deals with T1, HvMsrA (MsrA-StrepII) (Haloferax volcanii, UniProt D4GQQ9).
T1 construct: gene msrA1; C-terminal StrepII tag; expressed in E. coli Rosetta (DE3), Strep-Tactin and Superdex 75 purified; 21 kDa
T1 sequence (D4GQQ9 1-189): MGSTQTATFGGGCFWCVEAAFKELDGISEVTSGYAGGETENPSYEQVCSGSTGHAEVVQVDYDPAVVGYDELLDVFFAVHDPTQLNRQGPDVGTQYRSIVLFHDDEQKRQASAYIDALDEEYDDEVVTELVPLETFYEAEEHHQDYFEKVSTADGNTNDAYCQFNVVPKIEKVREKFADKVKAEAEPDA
The experiment in a line: MSO-peptide reductase assay, HPLC of dabsyl-Met. It counts as biochemical.

The next test concerns the target T2, HvMsrB (MsrB-StrepII) (Haloferax volcanii, UniProt D4GVV0).
T2 construct: StrepII-tagged, expressed from plasmid in Hfx. volcanii deletion strains; cell lysate
The test can be described thus: MSO-peptide reductase assay of cell lysate, HPLC of dabsyl-Met. The conditions noted are these: 400 µg cell extract, 200 µM dabsyl-MSO, 20 mM DTT, 25 mM Tris-Cl pH 7.5, 37°C. It counts as biochemical.

T2 sequence (D4GVV0 entry or part of it): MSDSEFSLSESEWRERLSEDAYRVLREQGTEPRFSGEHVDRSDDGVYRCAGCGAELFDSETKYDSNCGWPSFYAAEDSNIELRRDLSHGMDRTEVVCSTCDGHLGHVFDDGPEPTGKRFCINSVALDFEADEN

As to `C[S+]([O-])CC[C@H](N)C(=O)O` (stereo partly drawn) [MSO], the “MSO-peptide reductase assay, HPLC of dabsyl-Met” value on HvMsrA (MsrA-StrepII) (inhibitor, 0 to 20 mM MSO, dabsyl-MSO substrate, DTT, Tris-Cl pH 7.5, NaCl 0.2 to 2 M, 37°C, probably competing substrate) is “DMSO and MSO inhibited the MSO-peptide reductase activity of HvMsrA in a dose-dependent manner”.
For `CN(C)c1ccc(N=Nc2ccc(S(=O)(=O)N[C@@H](CC[S+](C)[O-])C(=O)O)cc2)cc1` (stereo partly drawn) [dabsyl-MSO], at HvMsrB (MsrB-StrepII), the “MSO-peptide reductase assay of cell lysate, HPLC of dabsyl-Met” value was “HvMsrB was also found to catalyze MSO-peptide reductase activity”. Further, the “MSO-peptide reductase assay, HPLC of dabsyl-Met” value at HvMsrA (MsrA-StrepII) (200 µM dabsyl-MSO, 20 mM DTT, 25 mM Tris-Cl pH 7.5, 37°C, 30 min) is listed as “HvMsrA was found to catalyze the reduction of the MSO peptide”.
